# Results: US20220184071A1, “GEPOTIDACIN FOR USE IN THE TREATMENT OF BACTERIAL URINARY TRACT INFECTIONS” (GlaxoSmithKline Intellectual Property Development Limited, priority 2019, published 2022)
# “Also recorded” adds a separate entry of the source.
# Legend:
# K. pneumoniae = test: Phase IIa baseline uropathogen susceptibility testing (CLSI broth microdilution); type: cell-based, Klebsiella pneumoniae; conditions: Klebsiella pneumoniae; Participant 7; read-out: GEP MIC
# Method: (§1) This phase IIa single center study evaluated the safety, tolerability, pharmacokinetics, and efficacy of oral gepotidacin 1500 mg BID for 5 days in female subjects with acute cystitis. Clean catch mid-stream urine specimens were obtained for quantitative culture by standard methods. Urine samples were taken from all participants pre-treatment (baseline) and at all post-baseline visits. All urine samples were sent to a central laboratory (PPD Global Clinical Laboratories, Highland Heights, Ky., USA) for Gram stain, quantitative culture, pathogen identification and susceptibility testing. See FIG. 1 for participant disposition and study outline.
# (§2) Susceptibility testing by CLSI broth microdilution and gradient diffusion (fosfomycin only) was conducted (CLSI, 2015, Methods for dilution antimicrobial susceptibility tests for bacteria that grow aerobically; approved standard-tenth edition; and CLSI, 2018. Performance Standards for Antimicrobial Susceptibility Testing; Twenty-seventh Informational Supplement M100-S28). Inclusion in the microbiological intent-to-treat population (micro-ITT), required growth of a qualifying baseline uropathogen (≥10^5 CFU/mL). See FIG. 2 for the baseline algorithm.
# [1] = Pharmacokinetics in infected mice (plasma, kidney, thigh; PopPK); type: in vivo, mouse
# Method: PK and PD studies using gepotidacin were conducted in murine (male CD-1 mice) thigh and kidney infections. The administered doses ranged from 1 to 200 mg/kg SC every 6 hours starting 1h post infection. Infected tissues were evaluated for bacterial burden at 24 h post infection (baseline controls at 1 h post infection).
# Plasma and tissue samples (kidney or thigh homogenates) were collected at 15, 30, 60, 120, 240 and 360 minutes. A population PK (PopPK) model was built in NONMEM using plasma exposures.
# Specific pathogen free male CD-1 mice weighing ˜27 g were used throughout the PK and PD studies. For most studies, mice were rendered neutropenic with two IP doses of cyclophosphamide on day −4 (150 mg/kg) and day −1 (100 mg/kg). Plasma and tissue samples (kidney and/or thigh) were collected at 15, 30, 60, 120, 240 and 360 minutes post dose from competent or neutropenic infected mice (N=3/group) following a single subcutaneous (SC) dose of 6.25-200 mg/kg. Samples were assayed by LC/MS/MS; the lower limit of quantification was 0.05 ug/mL.
# Non-compartmental Analysis (NCA): plasma NCA was conducted using Phoenix WinNonLin 6.3 (Pharsight) with the linear up log down method.
# Population Pharmacokinetics (PopPK): • Total drug concentrations in plasma were converted to free drug values based on protein binding of 24% in mice. • A PopPK model was built to describe the drug exposure in plasma over time using NONMEM (7.3) and the software R (version 3.4.0) for diagnostic plots. • The final model was used to simulate exposures at the multiple dose levels evaluated in the efficacy studies.
# P. aeruginosa = test: MIC by CLSI agar dilution, Example 1 Method 2; type: cell-based, Pseudomonas aeruginosa; conditions: n = 55
# Method: Antimicrobial activity was determined in a second study by […] using the CLSI recommended procedure in serial two-fold dilutions and the minimum inhibitory concentration (MIC) was determined as the lowest concentration of the compound that inhibited visible growth.
# MICs were determined according to CLSI agar dilution guidelines.
# C. koseri = test: Phase IIa baseline uropathogen susceptibility testing (CLSI broth microdilution); type: cell-based, Citrobacter koseri; conditions: Citrobacter koseri; Participant 1; read-out: GEP MIC
# Method: as §1, §2
# Bacteroides spp. = test: MIC by CLSI agar dilution, Example 6 Method 1; type: cell-based; conditions: for Gepotidacin MIC range: agar dilution
# Method: (§3) Antimicrobial activity was determined by agar dilution using the Clinical and Laboratory Standards Institute (CLSI) recommended procedure.
# (§4) The compounds were tested in serial two-fold dilutions and the minimum inhibitory concentration (MIC) was determined as the lowest concentration of the compound that inhibited visible growth. Gepotidacin was tested against 333 gram-negative anaerobic and 203 gram-positive anaerobic isolates collected from clinical samples in North America and Europe from 2000 to 2017; the majority collected from 2013 to 2016.
# (§5) Ceftriaxone, clindamycin, imipenem, metronidazole, moxifloxacin and piperacillin/tazobactam were included as comparators.
# (§6) Additional analysis was performed from the results of the study described in Method 1 above, to determine the in vitro activity of gepotidacin against gram-negative and gram-positive anaerobic organisms with resistance to ceftriaxone, clindamycin, imipenem, metronidazole, moxifloxacin and piperacillin/tazobactam.
# Fusobacterium spp. = test: MIC by CLSI agar dilution, Example 6 Method 1; type: cell-based
# Method: as §3, §4, §5, §6
# [2] = test system: Sutterella wadsworthensis; test: MIC by CLSI agar dilution, Example 6 Method 1; type: cell-based
# Method: as §3, §4, §5, §6
# Eggerthella lenta = test: MIC by CLSI agar dilution, Example 6 Method 1; type: cell-based
# Method: as §3, §4, §5, §6
# Bifidobacterium spp. = test: MIC by CLSI agar dilution, Example 6 Method 1; type: cell-based
# Method: as §3, §4, §5, §6
# [3] = Phase IIa safety and tolerability; type: in vivo, human
# Method: as §1
# Serial blood and urine PK sampling were performed for the first dose of study treatment on Day 1 and for the time-matched dose on Day 4. Participants took all doses of gepotidacin with food and remained in the clinic to complete a total of 10 doses. Participants were instructed to return for the TOC (Day 10 to 13) and Follow-up (Day 28±3) Visits.
smiles,measurement,setting,value
"O=c1ccc2ncc(=O)n3c2n1C[C@H]3CN1CCC(NCc2cc3c(cn2)OCCC3)CC1 [gepotidacin, (2R)-2-({4-[(3,4-dihydro-2H-pyrano[2,3-c]pyridin-6-ylmethyl)amino]-1-piperidinyl}methyl)-1,2-dihydro-3H,8H-2a,5,8a-triazaacenaphthylene-3,8-dione]",MIC,K. pneumoniae,4 µg/mL
same,duration of infusion,"[1]; PopPK final parameter estimate, plasma",0.262 h
same,"AUC0-6 in kidney, fold higher than in plasma","[1]; SC dosing, infected mice",4- to 5 fold
same,AUC0-6 in thigh relative to plasma,"[1]; SC dosing, infected mice",approximately half of plasma
same,clearance,"[1]; male, CD-1, mouse, subcutaneous, PopPK final parameter estimate, plasma",1.73 mL/min
same,Vd,"[1]; male, CD-1, mouse, subcutaneous, PopPK final parameter estimate, plasma, read-out: volume of distribution",0.151 L
same,fraction unbound,"[1]; mouse, plasma, mice, read-out: protein binding (converted)",0.76
same,MIC50,P. aeruginosa; Pseudomonas aeruginosa,8 µg/mL
same,MIC90,P. aeruginosa; Pseudomonas aeruginosa,32 µg/mL
same,Number of Isolates at Gepotidacin MIC 0.5 mg/L,P. aeruginosa,1
same,Number of Isolates at Gepotidacin MIC 1 mg/L,P. aeruginosa,2
same,Number of Isolates at Gepotidacin MIC 2 mg/L,P. aeruginosa,4
same,Number of Isolates at Gepotidacin MIC 4 mg/L,P. aeruginosa,18
same,Number of Isolates at Gepotidacin MIC 8 mg/L,P. aeruginosa,15
same,Number of Isolates at Gepotidacin MIC ≥16 mg/L,P. aeruginosa,15
same,MIC,C. koseri,0.5 µg/mL
same,MIC90,"Bacteroides spp.; Bacteroides, 191 isolates, read-out: Gepotidacin MIC90",4 µg/mL
same,Gepotidacin MIC range,"Bacteroides spp.; ceftriaxone R, 100 isolates",≤0.015 to 32 µg/mL
same,Gepotidacin MIC range,"Bacteroides spp.; clindamycin R, 53 isolates",≤0.015 to 32 µg/mL
same,Gepotidacin MIC range,"Bacteroides spp.; moxifloxacin R, 32 isolates",0.25 to 32 µg/mL
same,MIC90,"Fusobacterium spp.; Fusobacterium, 25 isolates, read-out: Gepotidacin MIC90",2 µg/mL
same,Gepotidacin MIC range,"Fusobacterium spp.; clindamycin R, 2 isolates",0.25 to 2 µg/mL
same,MIC90,"[2]; Sutterella wadsworthensis, 10 isolates, read-out: Gepotidacin MIC90",1 µg/mL
same,Gepotidacin MIC range,"[2]; metronidazole R, 4 isolates",0.5 to 1 µg/mL
same,MIC90,"Eggerthella lenta; Eggerthella lenta, 21 isolates, read-out: Gepotidacin MIC90",4 µg/mL
same,Gepotidacin MIC range,"Eggerthella lenta; ceftriaxone R, 19 isolates",0.06 to 32 µg/mL
same,Gepotidacin MIC range,"Eggerthella lenta; clindamycin R, 3 isolates",1 to 4 µg/mL
same,Gepotidacin MIC range,"Eggerthella lenta; moxifloxacin R, 6 isolates",1 to 32 µg/mL
same,MIC90,"Bifidobacterium spp.; Bifidobacterium, 26 isolates, read-out: Gepotidacin MIC90",0.5 µg/mL
same,Gepotidacin MIC range,"Bifidobacterium spp.; moxifloxacin R, 3 isolates",0.125 to 0.5 µg/mL
same,"Back pain, n (%)",[3]; N = 22,2 (9)
same,"Chest discomfort, n (%)",[3]; N = 22,2 (9)
same,"Gastrointestinal disorders, n (%)",[3]; N = 22,21 (95)
same,"General disorders and administration site conditions, n (%)",[3]; N = 22,2 (9)
same,"Headache, n (%)",[3]; N = 22,5 (23)
same,"Infections and infestations, n (%)",[3]; N = 22,6 (27)
same,"Nervous system disorders, n (%)",[3]; N = 22,5 (23)
same,"Viral upper respiratory tract infection, n (%)",[3]; N = 22,2 (9)
same,"Vomiting, n (%)",[3]; N = 22,5 (23)
same,"Vulvovaginal mycotic infection, n (%)",[3]; N = 22,2 (9)
same,"Any adverse event, n (%)","[3]; N = 22, 1500 mg BID 5 days",21 (95)
same,"Musculoskeletal and connective tissue disorders, n (%)","[3]; female, human, in vivo, 5 days",3 (14)
same,"safety laboratory parameters, vital signs, ECG",[3]; in vivo,no clinically relevant trends; also recorded: no clinically significant changes
same,withdrawals or study treatment discontinuations due to AEs,[3]; in vivo,No withdrawal due to AE; also recorded: no withdrawals or study treatment discontinuations due to AEs
same,Episodes of vomiting considered drug related,"[3]; mild or moderate, not treatment limiting",4 participants
same,intensity of GI AEs,"[3]; onset at day 1, improving upon repeat dosing",mild or moderate
same,tolerability,[3]; oral 1500 mg BID for 5 days,tolerated with no dose-limiting AEs
